Where only a bound is given, the exact number is not on record here.

Results on 29 compounds are retold here after BindingDB's records for doi:10.7270/Q2QZ28D7 (Burnham Center For Chemical Genomics, 2009).

Molecular target in the first experiment: not listed separately
Nature of the experiment: PubChem AID 1817.
Details: not given
With `CCN1C(=O)C(=CNc2ccc(N3CCOCC3)cc2)C(=O)N(CC)C1=S`, the midpoint of inhibition, the IC50, lay at 200 µM. The compound `O=C1CCCC(=O)C1=NNc1ccc(C(=O)O)cc1` [SMR000370092] gave an IC50 of 200 µM.

The target of another experiment is his6-Siah1 (aa 81-282) (Homo sapiens, UniProt Q8IUQ4). Description: blockers of Siah-1 interaction with plectin peptide – biochemical, fluorescence polarization, rhodamine-plectin, uHTS, primary screen (AID 1817).
Sequence of his6-Siah1 (aa 81-282) (Q8IUQ4 whole entry, looked up, the tested form may be a part): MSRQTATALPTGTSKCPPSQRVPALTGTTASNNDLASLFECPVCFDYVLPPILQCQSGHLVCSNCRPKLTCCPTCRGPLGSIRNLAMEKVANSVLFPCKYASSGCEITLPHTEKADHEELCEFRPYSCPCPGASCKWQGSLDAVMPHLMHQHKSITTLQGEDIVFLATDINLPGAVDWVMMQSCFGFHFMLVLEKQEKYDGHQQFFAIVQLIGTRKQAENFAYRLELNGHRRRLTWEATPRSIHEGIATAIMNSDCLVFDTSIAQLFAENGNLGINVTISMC
Details: not given
In general terms: In fluorescence polarisation assays a small probe gives low polarisation when free and higher when bound to something large.
As for `C[N+]1(CCNC(=O)CN=O)CCCCC1`, the IC50 was above 200 µM. In the case of `CCOC(=O)C1(C)CC(=Nc2ccc(O)cc2)C(=O)N1c1ccc(O)cc1` (centres undefined), the IC50 is above 200 µM.

`CC1(C)Cc2c(sc(N=CN3CCCCCC3)c2C#N)C(C)(C)N1`: the IC50 is above 200 µM.

`COc1cc(NS(=O)(=O)c2ccc(NC(=S)NC(=O)C=Cc3ccc(F)cc3)cc2)ncn1` displayed an IC50 above 200 µM. `CN1/C(=C\C=C\C2=[N+](C)c3ccc4ccccc4c3C2(C)C)C(C)(C)c2ccccc21` [1,1,3-trimethyl-2-[(E,3Z)-3-(1,3,3-trimethyl-2-indolylidene)prop-1-enyl]benzo[e]indol-3-ium;perchlorate] yielded an IC50 above 200 µM. For the compound `CN(Cc1c(C(=O)NN=Cc2ccc(F)cc2)nnn1-c1nonc1N)C1CCCCC1` [1-(4-amino-1,2,5-oxadiazol-3-yl)-5-[[cyclohexyl(methyl)amino]methyl]-N-[(4-fluorophenyl)methylideneamino]triazole-4-carboxamide], the IC50 is above 200 µM. As to `Fc1ccc(C=NNC(=S)Nc2cccnc2)cc1F` [1-[[3,4-bis(fluoranyl)phenyl]methylideneamino]-3-pyridin-3-yl-thiourea], the half-inhibitory concentration (IC50) is above 200 µM.

In turn, `CCN(CC)CCOC(=O)c1ccc(N=CC(C#N)c2nc(-c3cc4ccccc4oc3=O)cs2)cc1` (centres undefined) [2-(diethylamino)ethyl 4-[[(Z)-2-cyano-2-[4-(2-oxochromen-3-yl)-1,3-thiazol-2-yl]ethenyl]amino]benzoate] came in with an IC50 of 11.2 µM. Same read-out and setting: under `CCOC(=O)C1=C(C)N=c2sc(=Cc3ccc(OCC(=O)O)cc3)c(=O)n2C1c1ccc(Cl)cc1` (centres undefined) [2-[4-[[5-(4-chlorophenyl)-6-ethoxycarbonyl-7-methyl-3-oxidanylidene-5H-[1,3]thiazolo[3,2-a]pyrimidin-2-ylidene]methyl]phenoxy]ethanoic acid] stands above 200 µM; under `CCN(CC)c1ccc(C=c2sc3nnc(-c4ccccc4Cl)n3c2=O)cc1` [3-(2-chlorophenyl)-6-[4-(diethylamino)benzylidene][1,3]thiazolo[2,3-c][1,2,4]triazol-5(6H)-one], above 200 µM. For `COC(=O)c1cccc(Cn2c(Cl)c(C=NNC(=O)c3ccccc3Cl)sc2=O)c1` [3-{4-Chloro-5-[(2-chloro-benzoyl)-hydrazonomethyl]-2-oxo-thiazol-3-ylmethyl}-benzoic acid methyl ester], the half-inhibitory concentration (IC50) is above 200 µM. Regarding `O=C(Nc1ccc(Br)cc1)c1ccc(-n2c(O)c3c(c2O)CC=CC3)cc1` [4-[1,3-bis(oxidanylidene)-3a,4,7,7a-tetrahydroisoindol-2-yl]-N-(4-bromophenyl)benzamide], the IC50 is 18.6 µM.

As to `CC(C)(C)c1cc(-c2cs/c(=N\c3ccccc3)n2Cc2ccc(C(=O)O)cc2)cc(C(C)(C)C)c1O` [4-[[4-(3,5-ditert-butyl-4-oxidanyl-phenyl)-2-phenylazanyl-1,3-thiazol-3-ium-3-yl]methyl]benzoic acid;bromide], the IC50 was above 200 µM. `O=C(NN=Cc1cccc(Br)c1)c1ccc(Br)cc1` [4-bromanyl-N-[(3-bromophenyl)methylideneamino]benzamide] showed an IC50 above 200 µM. `COc1ccc(NC2=NC(=O)SC2=Cc2ccc(N(C)C)cc2)cc1` [(5Z)-5-[[4-(dimethylamino)phenyl]methylidene]-4-(4-methoxyanilino)-1,3-thiazol-2-one] showed an IC50 above 200 µM. Regarding `CCOC(=O)C(C#N)=c1sc(=C2C=Cc3ccccc3N2CC)c(=O)n1CC` [MLS000534135], the IC50 is above 200 µM.

Regarding `O=C(NN=Cc1ccc(OC(=O)c2cccs2)cc1)c1cccc(F)c1` [MLS000576933], the IC50 is above 200 µM. On to `O=C(O)c1ccc(C=NNC(=O)c2ccc(CN3c4cccc5cccc(c45)S3(=O)=O)cc2)cc1` [MLS001003216], for which the IC50 is above 200 µM. Consider `CC[n+]1c(/C=C/N(C)c2ccccc2)sc2ccc(Cl)cc21` [N-[(E)-2-(5-chloro-3-ethyl-1,3-benzothiazol-3-ium-2-yl)ethenyl]-N-methylaniline;perchlorate], for which the IC50 is above 200 µM.

With `CCN(CC)c1ccc(C=NC(C#N)C(=N)C#N)cc1` (centres undefined) [SMR000023871], the IC50 is above 200 µM. Compound `Cc1ccc(S(=O)(=O)N[N-][C+]2C3CC4CC(C3)CC2C4)cc1[N+](=O)[O-]` [SMR000241699] had an IC50 above 200 µM.

As for `Cc1cc(C)nc(NN=C2C(=O)N(Cc3ccc(Cl)cc3)c3ccccc32)n1` [SMR000248022], the IC50 was above 200 µM. Compound `C=c1c(C#N)c2[nH]c(N)c(C#N)c(C)c-2c1=Cc1ccc(-c2ccccc2C(=O)O)o1` [SMR000277284] came in with a half-inhibitory concentration (IC50) of 20.6 µM. This lies in the double-digit micromolar range. Same read-out and setting: the value for `CCN(CC)CCOC(=O)c1ccc(N=CC(C#N)c2nc(-c3ccc(OC)c(OC)c3)cs2)cc1` (centres undefined) [SMR000434079] was 12.5 µM; that for `COC(=O)c1cc(NC(=O)c2ccccc2)c(=O)oc1CC=Nc1ccc(Oc2ccccc2)cc1` [methyl 5-benzamido-6-oxidanylidene-2-[(E)-2-[(4-phenoxyphenyl)amino]ethenyl]pyran-3-carboxylate] was above 200 µM.

Still in this experiment, the particulars now being: inactive by the depositor's call.
With `CCCCNc1c2c3c(cccc3n(C)c1=O)C(=O)c1ccccc1-2` [1-Butylamino-3-methyl-3H-naphtho[1,2,3-de]quinoline-2,7-dione], the IC50 is 23.1 µM. Consider `CC1(C)OC(C)(C)C(=CNc2ccc(O)cc2)C1=O` [4-[(4-hydroxyanilino)methylene]-2,2,5,5-tetramethyldihydro-3(2H)-furanone], for which the IC50 came out at 48.2 µM. Against the preceding compound, the IC50 is about 2.1-fold higher.

By IC50 is commonly meant the point on the concentration scale where inhibition reaches its midpoint. Low values mean inhibition by little substance, high ones a need for much substance.
